Data set [1] in a line: Peptide incubation in media and identification of peptide species (LC-MS). The format is physicochemical. On the procedure:
Hela cells (15,000) were seeded into a 96-well plate. Cells were treated with suitable peptide concentrations diluted in the corresponding serum-free culture medium. After 1 h peptide incubation under standard growth conditions, the positive control was either directly treated with lysis solution or the supernatant was exchanged for serum-free culture medium and the plate was incubated for further 5 h under growing conditions. The CytoTox-ONE™ Reagent was added and incubated at RT for 10 minutes. Finally, the Stop Solution was added and the fluorescence was measured at 595 nm (λex = 550 nm) on an infinite M200 plate reader (Tecan) and normalized to the positive control cells.
Red blood cells (RBCs) were washed three times in PBS by centrifug ing at 4 °C and 3,000 x g for 5 min and diluted to 5% in PBS. The desired peptide concentrations diluted in PBS were added into a 96-well plate. Next, 5% RBCs in PBS were added into the wells and incubated for 24 h at 37 °C and 5% CO2. As a positive control, RBCs were mixed with 10% Triton X-100 in PBS. After the incubation time was completed, the plate was centrifuged at 2,500 x g for 3 min at RT and 100 μL of the supernatant was transferred into a fresh 96 -well plate. Lastly, the absorption (λ=560 nm) was measured on the infinite M200 plate reader (Tecan). For the evaluation, the measured absorption of the Triton-X-100 treatment was set to a hemolysis rate […]
30,000 HeLa cells were seeded into an 8-well. Cells were stained for 10 min with the Hoechst 33342 nuclear dye and transferred to the microscope UltraView VoX Spinning Disk Confocal Microscope (Perkin Elmer). 5 µM CF-DC-2 were added to the cells. Cells were imaged on a Plan-Apo Tirf 60X oil objective (NA 1.49, Nikon) at 37°C a nd 5% CO2. […]
mixed with 5 µl TFA. […] Finally, the different peptide species were analyzed by analytical HPLC ESI-MS (LTQ XL, Thermo Scientific) using a gradient of 10% to 60% of acetonitrile (ACN) in ddH2O + 0.1% formic acid (FA) on an Aeris 3.6 µm PEPTIDE XB-C18 100 LC column (Phenomenex).

For the next data set, the system named is mEGFP‐HRas. Description: Fluorescence microscopy of mEGFP‐HRas localization. The format is cell-based. The settings on record: HeLa mEGFP‐HRas cells, doxycycline-induced, 100 μM peptide, 6 h, n = 3 (Figure 8A). From the text:
mEGFP‐HRas was amplified from a plasmid gifted from Karel Svoboda^[ [69] ^] (Addgene plasmid # 18662) using the primers 5′‐gcgGGTACCgccaccatggtgagcaagg‐3′ and 5′‐gcgGCGGCCGCtcaggagagcacacactt‐3′. KpnI and NotI restriction sites (capital letter) were used and the construct was cloned into the pcDNA5 FRT‐TO vector to generate an inducible T‐REx‐HeLa cell line using the Flp‐In T‐REx System (Invitrogen). The plasmid was verified by sequencing. The construct was co‐transfected together with the pOG44 vector using the FuGENE HD transfection reagent (Promega). Positive clones were selected with DMEM medium supplemented with 10% FCS, 500 μg ml^−1 penicillin/streptomycin 100 μg ml^−1 hygromycin and 10 μg ml^−1 blasticidin and verified by fluorescence microscopy and immunoblot.
A total of 35,000 HeLa mEGFP‐HRas cells were seeded into an 8‐well plate. Cells were induced with […] ml^−1 doxycycline and incubated for around 15 h under standard growth conditions. Afterward, cells were treated for 6 h with 100 μM peptide diluted in serum‐free medium. And, 10 min prior to the end of the incubation time, the Hoechst 33342 nuclear dye was added. Cells were washed with serum‐free media. Finally, complete medium was added and cells were imaged on the UltraView VoX Spinning Disk Confocal Microscope (Perkin Elmer) on a 60X oil objective at 37 °C and 5% CO2. Images were cropped and processed using Fiji.

The test system of a further data set is HeLa cells. Description: Co‐localization studies (confocal microscopy, PCC and MOC). The settings on record: 2 h, 5 μM CF‐DC‐2, CellLight ER‐RFP, mean ± SD of ≥37 cells, n = 2. The class given is cell-based. On the procedure:
HeLa cells (30,000–40,000) were seeded into an 8‐well ibidi. For lysosomal and lipid droplet analysis, cells were treated for 30 min with 5 μM of CF‐labeled peptide combined with either 100 nM LysoTracker Red DND‐99 (Invitrogen) or a 1:1000 solution of distyryl Bodipy lipid droplet stain synthesized and kindly provided by Engelhardt et al.^[ [67] ^] diluted in serum‐free media under standard growth conditions. For Golgi analysis, cells were treated for 2 h with 5 μM CF‐labeled peptide under standard growth conditions. For the last 30 min of the incubation period, 1:100 BODIPY TR ceramide complexed to bovine serum albumine (BSA) (Invitrogen) was directly diluted into the well and incubated for the last 30 min together with the peptide. For ER staining, CellLight ER‐RFP, BacMam 2.0 (Invitrogen), was added to the cells and incubated overnight under standard growth conditions. The next day, the cells were treated for 2 h with 5 μM CF‐labeled peptides as described earlier. After the peptide and stain incubation, cells were washed three to four times with serum‐free medium. […] Pearson and Manders’ Coefficients were calculated using the JaCoP analysis tool.^[ [68] ^] For Golgi analysis, no PCC or MOC was determined as the unedited images contained a strong background signal.

Another data set relates to MDA‐MB‐231. Description: Cellular uptake by flow cytometry. The class given is cell-based. As to conditions: MDA‐MB‐231, 30 min, 5 μM CF‐labeled peptides, serum-free medium, 37 °C, n ≥ 3 (Figure 3E). The procedure: HeLa (90,000), MDA‐MB‐231 (120,000), and HFF‐1 (125,000) cells were seeded into a 24‐well plate. Cells were treated with the desired concentration of CF‐labeled peptide diluted in the appropriate serum‐free medium for 30 min at 37 °C and 5% CO2. Afterward, cells were washed once with PBS, detached from the plate using indicator‐free trypsin/EDTA and resuspended in indicator‐free culture medium. The cell mixture was measured on the Guava easyCyte flow cytometer (Merck) using the GRN‐B (520/30) detector.
(In flow cytometry, cells or beads pass a laser one at a time.)

No end group written: not given here.

On to “GLRKRLRKFRNKKMDHHCPW-NH2 [DC‐2, CPP sC18* fused to the DHHC motif derived from ZDHHC2/3/6/7/15/16/20]”, for which, in data set [1] (5 µM CF-DC-2 in serum-free medium lacking L-cystine and L-methionine, LC‐MS (Figure S8A)), the “peptide species observed in medium lacking L‐cystine” value is “mostly reduced peptide was observed”. The “peptide species observed in normal cell culture medium” value in data set [1] (5 µM CF-DC-2 in serum-free medium, before addition to HeLa cells and after 30 min at 37 °C, LC‐MS, Δmass = +119 Da (Figure S8A)) is recorded as “S‐cysteinylation at the cysteine”. Besides, the “disulfide dimer formation in normal cell culture medium” value in data set [1] (5 µM CF-DC-2 in serum-free medium, before addition to HeLa cells or after 30 min at 37 °C, LC‐MS (Figure S8A)) was “did not observe the disulfide dimer”. Moreover, the HRas localization result in the data set on mEGFP‐HRas is “altered HRas pattern”. For the same substance, in the data set on HeLa cells, the “Mander's overlap coefficient (MOC), ER” value amounted to 0.60 ± 0.20 and the “Pearson correlation coefficient (PCC), ER” value is recorded as 0.37 ± 0.10. The “cellular uptake (in words)” value with MDA‐MB‐231 was “internalized to a higher extent compared to DC‐4”.

These data come from PMC12117998, “First Steps toward the Design of Peptides that Influence the Intracellular Palmitoylation Machinery” (Chembiochem, 2025).
